Several values for one entry are separate records, joined by “and”; a condition that tells them apart may be missing. Equal entries are not always repeated. Inconclusive results and toxic doses are left out. Rule as the data show it: active = T/C of 150% or more; inactive = T/C below 125%.
Test system: L1210 leukemia ip in BDF1 mice, survival T/C
Assay: NCI In Vivo Anticancer Drug Screen. Data for tumor model L1210 Leukemia (intraperitoneal) in B6D2F1 (BDF1) mice
Details: endpoint: mean survival time, higher = longer survival
Outline: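 Value reflects the ratio of survival in compound-treated mice to survival in vehicle-treated controls, with both groups carrying the same transplanted tumor.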

[1] = dose: 200.0 mg/kg/injection, schedule: Q04DX002 (ip), vehicle: Klucel (hydroxypropylcellulose) (HPC)
[2] = dose: 400.0 mg/kg/injection, schedule: Q04DX002 (ip), vehicle: Klucel (hydroxypropylcellulose) (HPC)
[3] = dose: 100.0 mg/kg/injection, schedule: Q04DX002 (ip), vehicle: saline with Tween-80
[4] = dose: 100.0 mg/kg/injection, schedule: Q04DX003 (ip), vehicle: saline with Tween-80
[5] = dose: 200.0 mg/kg/injection, schedule: Q04DX002 (ip), vehicle: saline with Tween-80
[6] = dose: 200.0 mg/kg/injection, schedule: Q04DX003 (ip), vehicle: saline with Tween-80
[7] = dose: 400.0 mg/kg/injection, schedule: Q04DX002 (ip), vehicle: saline with Tween-80
[8] = dose: 400.0 mg/kg/injection, schedule: Q04DX003 (ip), vehicle: saline with Tween-80
[9] = dose: 100.0 mg/kg/injection, schedule: Q01DX009 (ip), vehicle: saline with Tween-80
[10] = dose: 200.0 mg/kg/injection, schedule: Q01DX009 (ip), vehicle: saline with Tween-80
[11] = dose: 100.0 mg/kg/injection, schedule: Q04DX003 (ip), vehicle: Klucel (hydroxypropylcellulose) (HPC)
[12] = dose: 200.0 mg/kg/injection, schedule: Q04DX003 (ip), vehicle: Klucel (hydroxypropylcellulose) (HPC)
[13] = dose: 400.0 mg/kg/injection, schedule: Q04DX003 (ip), vehicle: Klucel (hydroxypropylcellulose) (HPC)
[14] = dose: 100.0 mg/kg/injection, schedule: Q01DX001 (ip), vehicle: saline
[15] = dose: 200.0 mg/kg/injection, schedule: Q01DX001 (ip), vehicle: saline
[16] = dose: 400.0 mg/kg/injection, schedule: Q01DX001 (ip), vehicle: saline
[17] = dose: 100.0 mg/kg/injection, schedule: Q04DX003 (ip), vehicle: saline
[18] = dose: 200.0 mg/kg/injection, schedule: Q04DX003 (ip), vehicle: saline
[19] = dose: 400.0 mg/kg/injection, schedule: Q04DX003 (ip), vehicle: saline
[20] = dose: 100.0 mg/kg/injection, schedule: Q01DX009 (ip), vehicle: Klucel (hydroxypropylcellulose) (HPC)
[21] = dose: 200.0 mg/kg/injection, schedule: Q01DX009 (ip), vehicle: Klucel (hydroxypropylcellulose) (HPC)
[22] = dose: 400.0 mg/kg/injection, schedule: Q01DX009 (ip), vehicle: Klucel (hydroxypropylcellulose) (HPC)
[23] = dose: 25.0 mg/kg/injection, schedule: Q01DX009 (ip), vehicle: Klucel (hydroxypropylcellulose) (HPC)
[24] = dose: 50.0 mg/kg/injection, schedule: Q01DX009 (ip), vehicle: Klucel (hydroxypropylcellulose) (HPC)

Measured: T/C

O=C1CN(CCN2CC(=O)N(Cc3ccccc3)C2=S)C(=S)N1Cc1ccccc1
inactive: dose: 100.0 mg/kg/injection, schedule: Q04DX002 (ip), vehicle: Klucel (hydroxypropylcellulose) (HPC) 88 % of control | [1] 88 % of control | [2] 92 % of control

N#C/C(=C/c1cc([N+](=O)[O-])c(O)c([N+](=O)[O-])c1)C(N)=O
inactive: dose: 75.0 mg/kg/injection, schedule: Q01DX001 (ip), vehicle: saline 96 % of control | dose: 150.0 mg/kg/injection, schedule: Q01DX001 (ip), vehicle: saline 98 % of control | dose: 300.0 mg/kg/injection, schedule: Q01DX001 (ip), vehicle: saline 95 % of control

CCC(C(=O)NNC(=O)c1cc(OC)c(OC)c(OC)c1)c1ccccc1 (centres undefined)
inactive: dose: 100.0 mg/kg/injection, schedule: Q01DX001 (ip), vehicle: saline with Tween-80 96 % of control | [3] 97 % of control and 101 % of control | [4] 100 % of control and 90 % of control | dose: 200.0 mg/kg/injection, schedule: Q01DX001 (ip), vehicle: saline with Tween-80 98 % of control | [5] 97 % of control and 98 % of control | [6] 93 % of control and 104 % of control | dose: 400.0 mg/kg/injection, schedule: Q01DX001 (ip), vehicle: saline with Tween-80 93 % of control | [7] 101 % of control and 90 % of control | [8] 92 % of control and 93 % of control

COc1ccc(C(=O)NC(=O)C(C(=O)c2ccc(OC)cc2)c2ccccc2)cc1 (centres undefined)
inactive: dose: 100.0 mg/kg/injection, schedule: Q01DX001 (ip), vehicle: other 86 % of control

CC1(C)COP(Oc2ccccc2)OC1
inactive: [9] 100 % of control | [4] 107 % of control | [10] 97 % of control | [6] 103 % of control | [8] 107 % of control

C=CCc1cccc(OC)c1OCCN(CC)CC
inactive: dose: 6.25 mg/kg/injection, schedule: Q01DX009 (ip), vehicle: saline 111 % of control | dose: 12.5 mg/kg/injection, schedule: Q01DX009 (ip), vehicle: saline 102 % of control | dose: 25.0 mg/kg/injection, schedule: Q01DX009 (ip), vehicle: saline 100 % of control

CN/N=C/c1ccc([N+](=O)[O-])cc1
inactive: dose: 25.0 mg/kg/injection, schedule: Q04DX002 (ip), vehicle: DMSO 96 % of control | dose: 50.0 mg/kg/injection, schedule: Q04DX002 (ip), vehicle: DMSO 96 % of control | dose: 100.0 mg/kg/injection, schedule: Q04DX002 (ip), vehicle: DMSO 96 % of control and 98 % of control | dose: 200.0 mg/kg/injection, schedule: Q04DX002 (ip), vehicle: DMSO 88 % of control

C=C(C)C(O)CC(C)C (centres undefined)
inactive: dose: 100.0 mg/kg/injection, schedule: Q01DX001 (ip), vehicle: carboxymethylcellulose (CMC) 100 % of control | dose: 200.0 mg/kg/injection, schedule: Q01DX001 (ip), vehicle: carboxymethylcellulose (CMC) 100 % of control | dose: 400.0 mg/kg/injection, schedule: Q01DX001 (ip), vehicle: carboxymethylcellulose (CMC) 94 % of control

NC(=O)NC(Cc1ccccc1)(C(=O)O)c1ccccc1 (centres undefined)
inactive: [11] 103 % of control | [12] 98 % of control | [13] 103 % of control

O=C(O)C(CS(=O)(=O)O)Nc1ncnc2nc[nH]c12 (centres undefined)
inactive: [14] 93 % of control | [15] 98 % of control | [16] 98 % of control

O=C(O)C(Cc1ccc(O)cc1)c1ccccc1 (centres undefined)
inactive: [17] 98 % of control | [18] 94 % of control | [19] 96 % of control

O=C(O)c1ccc(-c2ccc(C(=O)O)cc2I)c(I)c1
inactive: [9] 92 % of control | [4] 91 % of control | [10] 87 % of control | [6] 96 % of control | [8] 94 % of control

O=S(=O)(N=C1C(Cl)=C(Cl)C(=NS(=O)(=O)c2ccccc2)C(Cl)=C1Cl)c1ccccc1
inactive: [20] 98 % of control | [21] 100 % of control | [22] 101 % of control

COc1cc2c(c3oc(=O)ccc13)C(=O)CC(C)(C)O2
inactive: [20] 95 % of control | [17] 96 % of control | [21] 91 % of control | [18] 102 % of control | [22] 95 % of control | [19] 98 % of control

CCCCCCCCCCOS(C)=O (centres undefined)
inactive: dose: 50.0 mg/kg/injection, schedule: Q01DX009 (ip), vehicle: saline with Tween-80 100 % of control | [9] 92 % of control | [10] 88 % of control

Cc1ccc(CC(=O)O)cc1C
inactive: [9] 101 % of control | [10] 104 % of control | dose: 400.0 mg/kg/injection, schedule: Q01DX009 (ip), vehicle: saline with Tween-80 102 % of control

CCOC(=O)/C=C/c1cccc([N+](=O)[O-])c1
inactive: [11] 98 % of control | [12] 91 % of control | [13] 101 % of control

COc1ccc(NC(=O)Oc2c(C(C)C)cccc2C(C)C)cc1
inactive: [11] 100 % of control | [12] 96 % of control | [13] 92 % of control

Cc1ccc(NC(=O)OCC(F)(F)C(F)(F)C(F)(F)F)c(NC(=O)OCC(F)(F)C(F)(F)C(F)(F)F)c1
inactive: [3] 98 % of control | [5] 98 % of control | [7] 112 % of control

CCN1CCC(CNc2cc(C)nc(/N=C(\N)Nc3ccc(Cl)c(Cl)c3)n2)C1 (centres undefined)
inactive: dose: 12.5 mg/kg/injection, schedule: Q04DX003 (ip), vehicle: Klucel (hydroxypropylcellulose) (HPC) 98 % of control | dose: 25.0 mg/kg/injection, schedule: Q04DX003 (ip), vehicle: Klucel (hydroxypropylcellulose) (HPC) 102 % of control | dose: 50.0 mg/kg/injection, schedule: Q04DX003 (ip), vehicle: Klucel (hydroxypropylcellulose) (HPC) 107 % of control

O=C1OC(c2cccc(Cl)c2)=N/C1=C\c1cc(Br)ccc1O
inactive: [3] 89 % of control | [5] 96 % of control | [7] 89 % of control

NC(=O)c1ncn(C2CC(CO)C(O)C2O)c1N (centres undefined)
inactive: [14] 100 % of control | [15] 110 % of control | [16] 104 % of control

COc1ccc(C(=S)N(C)NC(=O)CC(=O)NN(C)C(=S)c2ccc(OC)cc2)cc1
inactive: dose: 100.0 mg/kg/injection, schedule: Q01DX009 (ip), vehicle: gum acacia 95 % of control | dose: 100.0 mg/kg/injection, schedule: Q04DX003 (ip), vehicle: gum acacia 92 % of control | dose: 200.0 mg/kg/injection, schedule: Q01DX009 (ip), vehicle: gum acacia 90 % of control | dose: 200.0 mg/kg/injection, schedule: Q04DX003 (ip), vehicle: gum acacia 95 % of control | dose: 400.0 mg/kg/injection, schedule: Q04DX003 (ip), vehicle: gum acacia 96 % of control

CSC(=S)N/N=C(\C)c1ccccn1
inactive: [4] 107 % of control

N#CCN1CCCN(CC#N)C1
inactive: [23] 96 % of control | [24] 115 % of control | [20] 88 % of control and 91 % of control | [11] 92 % of control | [12] 103 % of control

CCCNC(=S)Nc1ccccc1
inactive: dose: 75.0 mg/kg/injection, schedule: Q01DX001 (ip), vehicle: other 101 % of control | dose: 150.0 mg/kg/injection, schedule: Q01DX001 (ip), vehicle: other 107 % of control

CCCCCCCCCCCc1nc(N)nc(NCCCC)n1
inactive: dose: 12.5 mg/kg/injection, schedule: Q01DX009 (ip), vehicle: Klucel (hydroxypropylcellulose) (HPC) 97 % of control | [23] 96 % of control | dose: 25.0 mg/kg/injection, schedule: Q04DX002 (ip), vehicle: Klucel (hydroxypropylcellulose) (HPC) 93 % of control | [24] 86 % of control | dose: 50.0 mg/kg/injection, schedule: Q04DX002 (ip), vehicle: Klucel (hydroxypropylcellulose) (HPC) 96 % of control | [1] 89 % of control | [2] 89 % of control

CCOC(=O)/C(C)=N\N=C(/CCOC)COC
inactive: dose: 50.0 mg/kg/injection, schedule: Q01DX001 (ip), vehicle: saline 101 % of control | dose: 50.0 mg/kg/injection, schedule: Q01DX009 (ip), vehicle: carboxymethylcellulose (CMC) 117 % of control | [14] 101 % of control | [15] 101 % of control | [16] 95 % of control | dose: 400.0 mg/kg/injection, schedule: Q01DX009 (ip), vehicle: carboxymethylcellulose (CMC) 94 % of control

From PubChem BioAssay AID248 (DTP/NCI, 2004)
